Experimental data: US20170027893A1, “THIOSEMICARBAZONES INHIBITORS OF LYSOPHOSPHATIDIC ACID ACYLTRANSFERASE AND USES THEREOF” (H. LEE CANCER CENTER AND RESEARCH INSTITUTE, INC., priority 2014, published 2017)
Read-outs that look alike come from different tables or passages of the source. Each block holds one compound with its values, some of them ahead of it.

Columns and labels:
LPAAT-β [1] = molecular target: T1, LPAAT-β (Homo sapiens, UniProt O15120); details: previously reported inhibitors; cited from earlier work
T1 sequence (O15120 24-278): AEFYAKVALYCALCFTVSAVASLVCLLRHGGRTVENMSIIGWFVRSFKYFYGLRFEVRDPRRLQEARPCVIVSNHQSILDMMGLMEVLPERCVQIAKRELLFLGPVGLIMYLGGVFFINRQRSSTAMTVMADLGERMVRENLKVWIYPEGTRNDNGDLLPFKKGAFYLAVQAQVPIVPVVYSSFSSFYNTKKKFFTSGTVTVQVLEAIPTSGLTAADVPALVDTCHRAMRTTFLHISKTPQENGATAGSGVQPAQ

LPAAT-β [2] = molecular target: T1, LPAAT-β; test: secondary thin layer chromatography (TLC) assay measuring fluorescent PA; type: biochemical; set-up: The assay utilizes full-length, recombinant, baculovirus-produced LPAAT-β; made in house
[3] = test system: MiaPaCa2 human pancreatic cancer cells; test: inhibition of proliferation, Alamar blue, 72 h; type: cell-based; details: Homo sapiens, MIA PaCa-2
Description: The ability of selected compounds from the libraries 6, 15 and 19 to inhibit the growth of MiaPaCa2 human pancreatic cancer cells was investigated. Human pancreatic carcinoma (MiaPaCa2) cells were plated at a low confluency into 96-well tissue culture-treated plates. After allowing cells to attach and grow overnight at 37 degrees in a 5% CO2 incubator, growth medium was replaced with fresh medium (100 μl/well) containing compounds in a range from 0.1-100 μM. All treatments were made from 500× stock solutions in DMSO, and the control wells received an equivalent amount of DMSO in medium. After 72 hours of growth in the presence of the compounds, Alamar blue was added to the wells according to the manufacturer's instructions (Life Technologies, Grand Island, N.Y.) and cells were incubated in its presence for 2-3 hours. Fluorescence readings were performed using a Biotek Synergy II plate reader with […] wavelengths of 530/590 nm. […] Calculated IC50s are representative of at least three independent experiments.

pancreatic cancer cells [4] = test: cell cycle progression (FIG. 22); type: cell-based
total cellular PA levels = total cellular PA levels measured by mass spectroscopy in intact cells; type: cell-based
Description: Inhibition is by more than 50%. Inhibition is greater than that seen with a known DAGK inhibitor. DAGK is an enzyme that can also increase PA levels.

[5] = test system: mTOR effector protein phosphorylation in MiaPaCa2 cells; test: mTOR effector protein phosphorylation, Western blotting; type: cell-based; details: Homo sapiens
Description: FIG. 4. Inhibition of mTOR effector protein phosphorylation by LPAAT-β inhibitor.

[6] = test system: Caspase 3 activity in IGROV-1 cells; test: induction of apoptosis, cleavage of fluorescent Caspase 3 substrate; type: cell-based, human; details: IGROV-1, 48 hr
Description: FIGS. 5A-5B. Induction of apoptosis with 19s treatment in pancreatic and ovarian cancer cell lines. Human pancreatic (MiaPaCa2) and ovarian (IGROV-1) cells were treated for 48 hr with LPAAT-b inhibitors then harvested and the samples assayed for their ability to cleave a fluorescent Caspase 3 specific substrate, Av-DEVD-AMC (A) In addition, the samples were run on SDS-PAGE gels and Western blotted to assess the presence of the activated form of Caspase 3 (inset). MiaPaCa2 cells show 3.5-fold and IGROV-1 cells show 25-fold activation of Caspase 3 activity after treatment with 19s compared to a vehicle-treated control sample. (B) PARP cleavage in MiaPaCa2 cells treated for 72 hr with 10 μM 19s and 19p.

LPAAT-β [7] = molecular target: T1, LPAAT-β; test: DTNB (Ellman's reagent) 96-well plate screening assay of LPAAT-β enzymatic activity; type: biochemical; set-up: The assay utilizes full-length, recombinant, baculovirus-produced LPAAT-β; made in house
Description: Screening with a modified screening assay in 96-well plate format for LPAAT-β enzymatic activity was performed as reported by Aguado and Campbell (Aguado et al., Characterization of a human lysophosphatidic acid acyltransferase that is encoded by a gene located in the class III region of the human major histocompatibility complex. J. Biol. Chem. 1998, 273, 4096-105).
The assay utilizes full-length, recombinant, baculovirus-produced LPAAT-β, which catalyzes the production of dioleoyl-[…] from the enzymatic substrates oleoyl-lysophosphatidic acid (LPA) and oleoyl-coenzyme A (Scheme 2). The ability of the compound to inhibit the LPAAT-β activity was assayed by the colorimetric measurement of the reaction of the free thiol group of the released coenzyme A with Ellman's reagent [5,5′-dithiobis-(2-nitrobenzoic acid) or DTNB] (Riener et al., Quick measurement of protein sulfhydryls with Ellman's reagent and with 4,4′-dithiodipyridine. Anal. Bioanal. Chem. 2002, 373, 266-76). […] A hit identified from the Life Chemicals library 6a (IC50 100 nM) was selected for further investigation.

[8] = body fat percentage measured by MRI in treated mice; type: in vivo; details: after 20 days of treatment
Description: YG9-095-3 can be a useful compound for the treatment of obesity as well as cancer.

mTOR signaling = test: inhibition of mTOR signaling (FIG. 20); type: cell-based
Description: P-p7056k and p-4EBP1 are decreased by treatment at 3 micromolar or higher.

RalA = RalA activation (FIG. 21); type: cell-based
Description: Therefore this inhibitor can target the RalA effector arm as well as mTOR which few compounds can do.

pancreatic cancer cells [9] = test: combination treatment with regorafenib (FIG. 23); type: cell-based
Description: This is important for the use of YG9-095-3 in combination with standard therapy for Kras mutant colon cancer.

Panc-1 [10] = test: anchorage-independent growth in agar; type: cell-based, human; details: Panc-1, 2-4 weeks in agar
Description: (§1) FIG. 3. LPAAT-β inhibitors block anchorage-independent growth of cancer cell lines. Human pancreatic (MiaPaCa2 and Panc-1), ovarian (OVCAR-5) and breast cancer (MDAMB-231) cells were plated into 3% agar containing LPAAT-β inhibitors and allowed to grow for 2-4 weeks in the presence of the compounds. […] This effect of the small molecules is similar to the effect of knockdown with LPAAT-β siRNA (nt, non-targeting; LP-1, LPAAT-β).

MDAMB-231 = test: anchorage-independent growth in agar; type: cell-based, human; details: MDAMB-231, 2-4 weeks in agar
Description: as §1

MiaPaCa2 = test: anchorage-independent growth in agar; type: cell-based, human; details: MiaPaCa2, 2-4 weeks in agar
Description: as §1

OVCAR-5 = test: anchorage-independent growth in agar; type: cell-based, human; details: OVCAR-5, 2-4 weeks in agar
Description: as §1

Panc-1 [11] = test: combination with 5-FU, proliferation by Alamar blue, isobolograms; type: cell-based, human; details: Panc-1, 72 hr
Description: (§2) FIG. 6. Synergistic effect of YG9-095-3 with 5-FU in IGROV-1 ovarian cancer cells. Human ovarian and pancreatic carcinoma cell lines (IGROV-1 and OVCAR-5; Panc-1) were treated for 72 hr with 19s, 5-FU, and the two drugs in simultaneous combination. […] However, in OVCAR-5 cells, at low concentration there appears to be an additive effect of the two drugs on proliferation, but the effect becomes antagonistic at the higher concentrations of YG9-095-3.

[12] = test system: IGROV-1 ovarian cancer cells; test: as above; type: cell-based, human; details: IGROV-1, 72 hr, simultaneous combination
Description: as §2

OVCAR-5 cells = test: as above; type: cell-based, human; details: OVCAR-5, 72 hr
Description: as §2

SMILES: CCOc1ccc(Cl)cc1-c1cc(N)nc(Nc2ccc(Cl)cc2)c1 [Compound 2]
in vitro activity against LPAAT-β enzyme activity, in words (LPAAT-β [1]): potent in vitro activity

SMILES: C#CCOC(=O)Nc1ccc(Cl)c(-c2nc3cc(Cl)ccc3o2)c1 [Compound 3]
in vitro activity against LPAAT-β enzyme activity, in words (LPAAT-β [1]): potent anti-enzymatic activity

IC50 (LPAAT-β [2]): 2.4 ± 0.7 µM
IC50 (LPAAT-β [2]; Table 4): 2.4 ± 0.7 µM
IC50 [3]: 6.3 ± 2.9 µM
cell membrane permeability (total cellular PA levels; concluded from treatment of intact cells): cell membrane permeable
IC50 (LPAAT-β [7]; Table 4, read-out: IC50 (μm) (DTNB assay) (converted)): 0.36 ± 0.1 µM
IC50 (LPAAT-β [7]; read-out: IC50 (μM) (DTNB assay) (converted)): 0.36 ± 0.1 µM
SMILES: C=CCc1cc(-c2ccc(Cl)c(Cl)c2)cc(C(C)=NNC(N)=S)c1O [Compound 19s]
effect on cell cycle progression (pancreatic cancer cells [4]): S-phase arrest and accumulation
rescue of cells from the cell cycle effect by exogenous PA (pancreatic cancer cells [4]): can be rescued
inhibition (reduction) of total cellular PA levels (total cellular PA levels; mass spectroscopy, intact cells): more than 50%
inhibition at 10 µM ([5]; MIA PaCa-2, read-out: inhibition of P-4E-BP 1): 76%
inhibition at 10 µM ([5]; MIA PaCa-2, read-out: inhibition of P-AKT): 88%
inhibition at 10 µM ([5]; MIA PaCa-2, read-out: inhibition of P-p70): 43%
activation of Caspase 3 activity compared to vehicle-treated control [6]: 25 fold
decrease in body fat percentage compared to vehicle treated controls [8]: 50%
concentration at which P-p70S6k and p-4EBP1 are decreased (mTOR signaling): ≥ 3 µM
inhibition of RalA activation (RalA): 50%
combination effect with regorafenib (pancreatic cancer cells [9]): additive to synergistic inhibition
inhibition of anchorage-independent growth (Panc-1 [10]): potent inhibition
inhibition of anchorage-independent growth (MDAMB-231): potent inhibition
inhibition of anchorage-independent growth (MiaPaCa2): potent inhibition
inhibition of anchorage-independent growth (OVCAR-5): potent inhibition
combination effect with 5-FU on cellular proliferation (Panc-1 [11]): mildly additive to antagonistic
combination effect with 5-FU on cellular proliferation [12]: moderately synergistic
combination effect with 5-FU on cellular proliferation (OVCAR-5 cells; at low concentration): additive
combination effect with 5-FU on cellular proliferation (OVCAR-5 cells; at the higher concentrations of YG9-095-3): antagonistic
